These are literature values, as cited in patent US7588907B2, “Ubiquitin mediated fluorescence complementation assay” (The Regents of the University of Michigan, priority 2005, dated 2009).

The test system of this data set is Jun ubiquitinated by DCX^hDET1-hCOP1. To be noted: cells that overexpressed DCX^hDET1-hCOP1 E3 ligase.

Residues, ends and D or L forms follow the SMILES beside them. *: point of attachment. Cbz = O=C(OCc1ccccc1)*

As for `CC(C)C[C@@H](C=O)NC(=O)[C@H](CC(C)C)NC(=O)[C@H](CC(C)C)NC(=O)OCc1ccccc1` [MG132] (Cbz-Leu-Leu-Leu-aldehyde), the “effect on Jun degradation” value is “inhibited”.
